Experiments:
Assay type in all cases: functional
NCI-H460 = assay: Concentration required for growth inhibition of human lung carcinoma cell line NCI-H460
HCT-116 = assay: Concentration required for growth inhibition human of human colon cancer cell line HCT116
A549 = assay: Concentration required for growth inhibition of human lung carcinoma cell line A549

SMILES: C=C(CCC(C)C)COC(=O)[C@@H](O)C/C=C/C[C@@H]1O[C@@H]2/C=C/C/C=C/C(C)=C\[C@H]3O[C@@H](C/C=C/C=C/C(=O)O[C@H](C2)[C@@]1(C)CO)C[C@H](O)[C@H]3C
- GI50 (NCI-H460): 100 nM
- GI50 (HCT-116): 40 nM
- GI50 (A549): 3200 nM

SMILES: C=C(CCC(C)C)COC(=O)[C@H](O)C/C=C/C[C@@H]1O[C@@H]2/C=C/C/C=C/C(C)=C\[C@H]3O[C@@H](C/C=C/C=C/C(=O)O[C@H](C2)[C@@]1(C)CO)C[C@H](O)[C@H]3C
- GI50 (NCI-H460): 40 nM
- GI50 (HCT-116): 20 nM
- GI50 (A549): 2000 nM

SMILES: C=C(CCC(C)C)COC(=O)[C@@H](O)C/C=C\C[C@@H]1O[C@@H]2/C=C\C/C=C/C(C)=C\[C@H]3O[C@@H](C/C=C/C=C/C(=O)O[C@H](C2)[C@@]1(C)CO)C[C@H](O)[C@H]3C
- GI50 (NCI-H460): 5000 nM
- GI50 (HCT-116): 5000 nM
- GI50 (A549): > 10000 nM

SMILES: C=C(CCC(C)C)COC(=O)[C@@H](O)C/C=C\C[C@H]1O[C@H]2/C=C/C/C=C/C(C)=C\[C@@H]3O[C@H](C/C=C/C=C/C(=O)O[C@@H](C2)[C@]1(C)CO)C[C@@H](O)[C@@H]3C
- GI50 (NCI-H460): 3000 nM
- GI50 (HCT-116): 2000 nM
- GI50 (A549): 6000 nM

SMILES: C=C(CCC(C)C)COC(=O)[C@H](O)C/C=C\C[C@@H]1O[C@@H]2/C=C/C/C=C/C(C)=C\[C@H]3O[C@@H](C/C=C/C=C/C(=O)O[C@H](C2)[C@@]1(C)CO)C[C@H](O)[C@H]3C [LASONOLIDE A]
- GI50 (NCI-H460): < 3 nM
- GI50 (HCT-116): < 3 nM
- GI50 (A549): 20 nM

SMILES: C=C(CCC(C)C)COC(=O)[C@@H](O)C/C=C\C[C@@H]1O[C@@H]2/C=C/C/C=C/C(C)=C\[C@H]3O[C@@H](C/C=C/C=C/C(=O)O[C@H](C2)[C@@]1(C)CO)C[C@H](O)[C@H]3C
- GI50 (NCI-H460): 9 nM
- GI50 (HCT-116): < 3 nM
- GI50 (A549): 50 nM

— ChEMBL document CHEMBL1136043, “Synthesis of (+)-Lasonolide A: (-)-lasonolide A is the biologically active enantiomer” (2002)
